pIC50: −log10 of the molar value. Residues, ends and D or L forms follow the SMILES beside them.
How the values were obtained:
Integrin alpha-V/beta-3 = Integrin alpha-V/beta-3 (Homo sapiens, UniProt P05106+P06756); assay: Inhibition of integrin alpha-V-beta-3-mediated SK-MEL-24 cell adhesion to fibronectin
Integrin alpha-5/beta-1 = Integrin alpha-5/beta-1 (Homo sapiens, UniProt P05556+P08648); assay: Inhibition of integrin alpha-5-beta-1-mediated K562 cell adhesion to fibronectin; format: cell-based
Sequence of Integrin alpha-5/beta-1 (P05556 21-798 limits assumed): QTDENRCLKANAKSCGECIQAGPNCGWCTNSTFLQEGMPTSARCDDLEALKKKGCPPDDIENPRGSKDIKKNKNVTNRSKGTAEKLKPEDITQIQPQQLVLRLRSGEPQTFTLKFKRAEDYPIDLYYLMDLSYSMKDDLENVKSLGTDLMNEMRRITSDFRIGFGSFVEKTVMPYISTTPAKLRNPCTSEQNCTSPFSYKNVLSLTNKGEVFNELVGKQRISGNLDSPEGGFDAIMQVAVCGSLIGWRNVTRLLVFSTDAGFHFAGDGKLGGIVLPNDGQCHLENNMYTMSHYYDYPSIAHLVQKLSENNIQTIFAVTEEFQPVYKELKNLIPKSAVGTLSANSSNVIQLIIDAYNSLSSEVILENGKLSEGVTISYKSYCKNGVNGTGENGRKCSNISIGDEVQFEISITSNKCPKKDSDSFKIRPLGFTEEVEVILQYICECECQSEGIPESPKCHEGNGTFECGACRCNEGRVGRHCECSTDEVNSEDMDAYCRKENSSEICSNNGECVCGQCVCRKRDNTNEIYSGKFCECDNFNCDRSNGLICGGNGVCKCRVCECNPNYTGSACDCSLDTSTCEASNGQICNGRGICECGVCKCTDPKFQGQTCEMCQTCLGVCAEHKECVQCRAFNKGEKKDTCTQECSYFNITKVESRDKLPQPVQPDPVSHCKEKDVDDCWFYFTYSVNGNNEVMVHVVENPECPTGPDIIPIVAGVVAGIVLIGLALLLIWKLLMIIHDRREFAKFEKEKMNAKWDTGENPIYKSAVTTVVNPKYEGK
Sequence of Integrin alpha-5/beta-1 (P08648 42-894 limits assumed): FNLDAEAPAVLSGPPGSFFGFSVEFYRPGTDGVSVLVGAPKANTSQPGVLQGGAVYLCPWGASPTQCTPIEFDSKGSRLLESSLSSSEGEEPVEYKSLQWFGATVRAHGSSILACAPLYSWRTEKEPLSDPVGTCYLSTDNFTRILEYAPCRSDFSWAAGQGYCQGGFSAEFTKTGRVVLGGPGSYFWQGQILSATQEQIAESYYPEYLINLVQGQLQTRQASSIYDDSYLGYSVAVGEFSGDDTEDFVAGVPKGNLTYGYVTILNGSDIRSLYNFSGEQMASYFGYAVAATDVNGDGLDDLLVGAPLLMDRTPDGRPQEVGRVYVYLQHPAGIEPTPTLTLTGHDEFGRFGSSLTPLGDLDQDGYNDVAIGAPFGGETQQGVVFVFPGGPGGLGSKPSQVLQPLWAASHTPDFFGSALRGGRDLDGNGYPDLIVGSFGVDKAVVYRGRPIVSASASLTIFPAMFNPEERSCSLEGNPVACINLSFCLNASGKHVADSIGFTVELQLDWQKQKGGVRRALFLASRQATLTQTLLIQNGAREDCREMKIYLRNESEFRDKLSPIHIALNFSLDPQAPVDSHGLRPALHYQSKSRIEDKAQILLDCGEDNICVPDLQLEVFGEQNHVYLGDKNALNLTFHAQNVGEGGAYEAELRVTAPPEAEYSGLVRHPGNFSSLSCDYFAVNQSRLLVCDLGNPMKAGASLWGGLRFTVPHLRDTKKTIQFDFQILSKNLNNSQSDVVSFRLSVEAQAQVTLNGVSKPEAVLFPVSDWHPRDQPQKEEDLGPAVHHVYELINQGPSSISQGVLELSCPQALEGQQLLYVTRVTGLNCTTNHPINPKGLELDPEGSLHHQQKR
Sequence of Integrin alpha-5/beta-1 (P08648 895-1049 limits assumed): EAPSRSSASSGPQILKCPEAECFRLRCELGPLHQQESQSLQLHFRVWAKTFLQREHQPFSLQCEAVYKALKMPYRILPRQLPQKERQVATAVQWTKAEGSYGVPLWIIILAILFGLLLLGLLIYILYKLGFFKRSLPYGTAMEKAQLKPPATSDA

Sequence of Integrin alpha-V/beta-3 (P05106 27-788 limits assumed): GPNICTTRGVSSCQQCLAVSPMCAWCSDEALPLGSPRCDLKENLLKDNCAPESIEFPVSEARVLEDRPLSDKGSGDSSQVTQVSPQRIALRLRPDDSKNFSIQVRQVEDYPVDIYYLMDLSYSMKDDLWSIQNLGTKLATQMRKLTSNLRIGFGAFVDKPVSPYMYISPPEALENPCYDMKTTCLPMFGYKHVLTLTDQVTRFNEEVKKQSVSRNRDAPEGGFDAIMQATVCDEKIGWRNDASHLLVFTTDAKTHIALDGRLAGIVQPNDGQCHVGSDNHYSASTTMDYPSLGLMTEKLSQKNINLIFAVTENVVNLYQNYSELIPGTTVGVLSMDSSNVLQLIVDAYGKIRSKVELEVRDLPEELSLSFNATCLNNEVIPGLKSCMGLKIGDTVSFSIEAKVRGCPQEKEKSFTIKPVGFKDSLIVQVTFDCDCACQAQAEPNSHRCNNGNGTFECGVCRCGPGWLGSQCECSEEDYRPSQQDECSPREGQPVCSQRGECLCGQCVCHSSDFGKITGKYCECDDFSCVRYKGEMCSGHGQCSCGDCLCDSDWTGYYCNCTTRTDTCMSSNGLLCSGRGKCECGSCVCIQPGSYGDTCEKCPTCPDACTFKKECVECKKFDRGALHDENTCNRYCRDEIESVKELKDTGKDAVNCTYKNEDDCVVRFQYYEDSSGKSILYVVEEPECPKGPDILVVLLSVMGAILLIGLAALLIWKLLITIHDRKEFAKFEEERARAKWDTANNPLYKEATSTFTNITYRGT
Sequence of Integrin alpha-V/beta-3 (P06756 31-889 limits assumed): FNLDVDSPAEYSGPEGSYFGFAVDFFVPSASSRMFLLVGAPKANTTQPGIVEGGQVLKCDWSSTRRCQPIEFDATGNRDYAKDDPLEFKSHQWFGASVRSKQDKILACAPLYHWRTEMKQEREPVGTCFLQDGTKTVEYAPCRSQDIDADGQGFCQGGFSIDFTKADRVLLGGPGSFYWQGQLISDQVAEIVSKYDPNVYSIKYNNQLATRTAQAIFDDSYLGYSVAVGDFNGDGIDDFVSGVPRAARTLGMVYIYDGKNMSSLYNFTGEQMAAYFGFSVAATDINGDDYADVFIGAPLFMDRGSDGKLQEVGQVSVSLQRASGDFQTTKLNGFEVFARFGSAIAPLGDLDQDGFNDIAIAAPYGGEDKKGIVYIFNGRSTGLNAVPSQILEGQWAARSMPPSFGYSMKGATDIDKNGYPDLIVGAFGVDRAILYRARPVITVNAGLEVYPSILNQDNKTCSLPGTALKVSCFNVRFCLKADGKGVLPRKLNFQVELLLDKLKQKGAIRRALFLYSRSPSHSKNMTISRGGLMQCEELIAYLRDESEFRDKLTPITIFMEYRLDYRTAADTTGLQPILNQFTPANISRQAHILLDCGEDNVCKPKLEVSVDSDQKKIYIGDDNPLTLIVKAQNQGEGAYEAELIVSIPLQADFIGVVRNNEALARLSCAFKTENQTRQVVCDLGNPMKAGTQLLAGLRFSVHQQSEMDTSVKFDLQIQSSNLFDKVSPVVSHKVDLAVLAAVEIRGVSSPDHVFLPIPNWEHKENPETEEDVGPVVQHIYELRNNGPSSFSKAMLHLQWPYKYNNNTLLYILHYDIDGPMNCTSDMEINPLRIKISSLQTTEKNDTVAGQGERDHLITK
Sequence of Integrin alpha-V/beta-3 (P06756 891-1048 limits assumed): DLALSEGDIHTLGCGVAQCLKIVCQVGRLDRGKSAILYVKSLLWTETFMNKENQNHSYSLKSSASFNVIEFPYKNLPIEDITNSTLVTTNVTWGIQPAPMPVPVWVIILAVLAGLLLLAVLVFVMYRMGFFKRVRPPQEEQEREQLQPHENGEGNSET

Q: `CCCN(C(=O)C(CC(=O)O)C(=O)O)C1=C(C)CC(c2ccccc2)N(Cc2ccc(C(=N)N)cc2)C1=O` (configuration not stated) was tested. Which pIC50 (Integrin alpha-V/beta-3) did it give?
A: The pIC50 was less than 3.00.

Q: And the pIC50 (Integrin alpha-5/beta-1)?
A: Its pIC50 is less than 3.00.

Q: `CCCN(C(=O)CC(=O)O)C1=C(C)CC(c2ccccc2)N(Cc2ccc(N)cc2)C1=O` (configuration not stated) was tested. Which pIC50 (Integrin alpha-V/beta-3) did it give?
A: The pIC50 was 6.22.

Q: And the pIC50 (Integrin alpha-5/beta-1)?
A: Its pIC50 is 6.77.

Q: With `CCCN(C(=O)C(CC(=O)OC)C(=O)O)C1=C(C)CC(c2ccccc2)N(Cc2ccc(N)cc2)C1=O` (configuration not stated) as the molecule, how does the pIC50 (Integrin alpha-V/beta-3) read?
A: Its pIC50 is 4.35.

Q: And the pIC50 (Integrin alpha-5/beta-1)?
A: Its pIC50 is less than 3.00.

Q: `CCCN(C(=O)C(CC(=O)O)C(=O)O)C1=C(C)CC(c2ccccc2)N(Cc2ccc(N)cc2)C1=O` (configuration not stated) was tested. Which pIC50 (Integrin alpha-V/beta-3) did it give?
A: Its pIC50 is less than 3.00.

Q: And the pIC50 (Integrin alpha-5/beta-1)?
A: The pIC50 was less than 3.00.

Q: With `CCCN(C(=O)CC(=O)O)C1=C(C)CC(c2ccccc2)N(CCCCN)C1=O` (configuration not stated) as the molecule, how does the pIC50 (Integrin alpha-V/beta-3) read?
A: Its pIC50 is 7.42.

Q: And the pIC50 (Integrin alpha-5/beta-1)?
A: The pIC50 was 7.37.

Q: What does the source list for `CCCN(C(=O)CCN)C1=C(C)CC(c2ccccc2)N(CCC(=O)O)C1=O` (configuration not stated)?
A: pIC50 (Integrin alpha-V/beta-3): < 3.00; pIC50 (Integrin alpha-5/beta-1): < 3.00

Q: How did the pIC50 (Integrin alpha-V/beta-3) turn out when `CCCN(C(=O)CCCCCN)C1=C(C)CC(c2ccccc2)N(CCC(=O)O)C1=O` (configuration not stated) was run?
A: The pIC50 was less than 3.00.

Q: And the pIC50 (Integrin alpha-5/beta-1)?
A: Its pIC50 is less than 3.00.

Q: What does the source list for `CCCN(C(=O)CC(=O)O)C1=C(C)CC(c2ccc(C(=N)N)cc2)N([C@@H](C)c2ccc(OC)cc2)C1=O` (some centres not stated)?
A: pIC50 (Integrin alpha-V/beta-3): < 3.00; pIC50 (Integrin alpha-5/beta-1): < 3.00

Q: How did the pIC50 (Integrin alpha-V/beta-3) turn out when `CCCN(C(=O)CC(=O)O)C1=C(C)CC(c2ccccc2)N(Cc2ccc(C(=N)N)cc2)C1=O` (configuration not stated) was run?
A: Its pIC50 is 3.92.

Q: What about the pIC50 (Integrin alpha-5/beta-1) of the same molecule?
A: Its pIC50 is less than 3.00.

Q: With `CCCN(C(=O)CC(=O)O)C1=C(C)C[C@@H](c2ccc(N)cc2)N([C@@H](C)c2ccc(OC)cc2)C1=O` as the molecule, how does the pIC50 (Integrin alpha-V/beta-3) read?
A: Its pIC50 is 6.62.

Q: What about the pIC50 (Integrin alpha-5/beta-1) of the same molecule?
A: Its pIC50 is less than 3.00.

Q: How did the pIC50 (Integrin alpha-V/beta-3) turn out when `CCCN(C(=O)CCC(=O)O)C1=C(C)CC(c2ccccc2)N(Cc2ccc(C(=N)N)cc2)C1=O` (configuration not stated) was run?
A: Its pIC50 is less than 3.00.

Q: And the pIC50 (Integrin alpha-5/beta-1)?
A: Its pIC50 is less than 3.00.

Q: `CCCN(C(=O)C(CC(=O)OC)C(=O)O)C1=C(C)CC(c2ccccc2)N(Cc2ccc(C(=N)N)cc2)C1=O` (configuration not stated) was tested. Which pIC50 (Integrin alpha-V/beta-3) did it give?
A: The pIC50 was less than 3.00.

Q: And the pIC50 (Integrin alpha-5/beta-1)?
A: The pIC50 was less than 3.00.

Q: `CCCN(C(=O)CC(=O)O)C1=C(C)C[C@H](c2ccccc2)N([C@@H](C)c2ccc(N)cc2)C1=O` was tested. Which pIC50 (Integrin alpha-V/beta-3) did it give?
A: The pIC50 was 4.82.

Q: And the pIC50 (Integrin alpha-5/beta-1)?
A: The pIC50 was 4.45.

Q: `CCCN(C(=O)CC(=O)O)C1=C(C)C[C@@H](c2ccccc2)N([C@@H](C)c2ccc(N)cc2)C1=O` was tested. Which pIC50 (Integrin alpha-V/beta-3) did it give?
A: The pIC50 was 7.15.

Q: What about the pIC50 (Integrin alpha-5/beta-1) of the same molecule?
A: The pIC50 was 7.24.

Q: Which results are given for `CCCN(C(=O)CC(=O)O)C1=C(C)C[C@H](c2ccc(N)cc2)N([C@@H](C)c2ccc(OC)cc2)C1=O`?
A: pIC50 (Integrin alpha-V/beta-3): 4.68; pIC50 (Integrin alpha-5/beta-1): 7.74

Q: With `CC(=O)N[C@@H](CC(=O)O)C(=O)N[C@@H](CCCNC(=N)N)C(=O)N[C@@H](CC(C)C)C(=O)N[C@@H](CC(=O)O)C(=O)N[C@@H](CO)C(=O)O` (Ac-DRLDS-OH) as the molecule, how does the pIC50 (Integrin alpha-V/beta-3) read?
A: Its pIC50 is 7.60.

Q: And the pIC50 (Integrin alpha-5/beta-1)?
A: The pIC50 was 3.59.

Reference: ChEMBL document CHEMBL1137514, “Synthesis and biological evaluation of non-peptide alpha(v)beta(3)/alpha(5)beta(1) integrin dual antagonists containing 5,6-dihydropyridin-2-one scaffolds” (Bioorg Med Chem, 2007)
